pIC50: −log10 of the molar value.

The test concerns the target T1, human renin (Homo sapiens, UniProt P00797).
T1 construct: A human plasma pool is used as the source of both the substrate (angiotensinogen) and the enzyme (renin); from tissue; host or cells: human plasma pool
T1 sequence (P00797 67-406): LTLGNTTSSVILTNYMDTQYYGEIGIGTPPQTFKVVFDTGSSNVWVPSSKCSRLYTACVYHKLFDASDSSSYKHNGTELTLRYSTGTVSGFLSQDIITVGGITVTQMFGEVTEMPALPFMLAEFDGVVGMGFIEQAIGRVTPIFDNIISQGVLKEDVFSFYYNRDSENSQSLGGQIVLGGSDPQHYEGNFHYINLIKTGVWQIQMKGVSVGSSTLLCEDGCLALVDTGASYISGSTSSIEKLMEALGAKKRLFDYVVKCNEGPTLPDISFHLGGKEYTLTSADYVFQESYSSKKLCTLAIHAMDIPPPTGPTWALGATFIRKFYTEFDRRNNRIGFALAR
As to the kind of experiment: Plasma renin assay (inhibition of human renin, angiotensin I by RIA). It counts as biochemical. The note with it: human plasma pool, pH 6.0, 2 h incubation at 37°. As to the method: The assay is performed as follows: The test compound (i.e. the inhibitor) is dissolved in dimethylsulfoxide (1 mM stock solution) and diluted with an aqueous buffer solution of 270 mM 2-(N-morpholino)ethanesulfonic acid and 1% human serum albumin (pH 5.85, also containing dimercaprol and 8-hydroxyquinoline sulfate in accordance with the instructions of the RIA kit noted below) to give an assay mixture in which the final dimethylsulfoxide content is 1% (v/v).
A human plasma pool is used as the source of both the substrate (angiotensinogen) and the enzyme (renin). The reaction is initiated by the addition of 50 μL of human plasma pool to 50 μL of various concentrations of inhibitor in the 1% dimethylsulfoxide assay buffer. The plasma renin activity is measured by the amount of angiotensin I generated at pH 6.0 following a 2 h incubation at 37°.
Quantitation of angiotensin I is performed by radioimmunoassay (RIA kit from New England Nuclear-Dupont, Mississauga, ON, Canada). The enzymatic activity of renin is expressed in ng of angiotensin I generated (/mL/2 h). The extent of inhibition of the reaction is determined from the amount of angiotensin I generated in reference to a control prepared without inhibitor. Nonlinear regression analysis is used to calculate the IC50 values, i.e. the molar concentration of the test compound required to cause a 50% inhibition of the enzyme activity.
On to `Cc1nc(C[C@H](CC(=O)N(CC(=O)N(C)C)CC2CCCCC2)C(=O)N[C@@H](CC2CCCCC2)[C@@H](O)[C@@H](O)CC(C)C)cs1` [Compound 47, N^4-(cyclohexylmethyl)-N^4-[2-(dimethylamino)-2-oxoethyl]-N^1-[1(S)-(cyclohexylmethyl)-2(R),3(S)-dihydroxy-5-methylhexyl]-2(R)-[(2-methyl-4-thiazolyl)methyl]butanediamide], for which the pIC50 was 7.73.
For `CCC[C@H](CC(=O)N(CC(=O)N(C)C)[C@@H](C)c1ccccc1)C(=O)N[C@@H](CC1CCCCC1)[C@@H](O)[C@@H](O)CC(C)C` [Compound 25, N^4-[2-(dimethylamino)-2-oxoethyl]-N^4-[1(S)-phenylethyl]-N^1-[1(S)-(cyclohexylmethyl)-2(R),3(S)-dihydroxy-5-methylhexyl]-2(R)-propylbutanediamide] the value was 7.47.
The value for `CC(C)C[C@H](O)[C@H](O)[C@H](CC1CCCCC1)NC(=O)[C@@H](CC(=O)N(CC(=O)N1CCOCC1)CC1CCCCC1)Cc1csc(N)n1` [Compound 49] was 8.82.
For `CC(C)C[C@H](O)[C@H](O)[C@H](CC1CCCCC1)NC(=O)[C@@H](CC(=O)N(CC(=O)N(C)C)[C@@H](C)c1ccccc1)Cc1csc(N)n1` [Compound 28, N^4-[2-(dimethylamino)-2-oxoethyl]-N^4-[1(S)-phenylethyl]-N^1-[1(S)-(cyclohexylmethyl)-2(R),3(S)-dihydroxy-5-methylhexyl]-2(R)-[(2-amino-4-thiazolyl)methyl]butanediamide] the value was 8.89; for `COc1ccc(CN(CC(=O)N(C)C)C(=O)C[C@@H](CC2CC2)C(=O)N[C@@H](CC2CCCCC2)[C@@H](O)[C@@H](O)CC(C)C)cc1` [Compound 10, N^4-[2-(dimethylamino)-2-oxoethyl]-N^4-[(4-methoxyphenyl)methyl]-N^1-[1(S)-(cyclohexylmethyl)-2(R),3(S)-dihydroxy-5-methylhexyl]-2(R)-(cyclopropylmethyl)butanediamide], 6.36; for `CC(C)C[C@H](O)[C@H](O)[C@H](CC1CCCCC1)NC(=O)[C@@H](CC(=O)N(CCc1ccccc1)CC(=O)N(C)C)Cc1csc(N)n1` [Compound 60, N^4-[2-(dimethylamino)-2-oxoethyl]-N^4-(2-phenylethyl)-N^1-[1(S)-(cyclohexylmethyl)-2(R),3(S)-dihydroxy-5-methylhexyl]-2(R)-[(2-amino-4-thiazolyl)methyl]butanediamide], 8.30.
The molecule `CC(C)C[C@H](O)[C@H](O)[C@H](CC1CCCCC1)NC(=O)[C@@H](CC(=O)N(CC(=O)N(C)CCc1ccccn1)CC1CCCCC1)Cc1cccnc1` [Compound 66, N^4-(cyclohexylmethyl)-N^4 -{2-{methyl-[2-(2-pyridinyl)ethyl]amino}-2-oxoethyl}-N^1-[1(S)-(cyclohexylmethyl)-2(R),3(S)-dihydroxy-5-methylhexyl]-2(R)-(3-pyridinylmethyl)-butanediamide] had a pIC50 of 8.00.
The value for `CC(C)C[C@H](O)[C@H](O)[C@H](CC1CCCCC1)NC(=O)[C@@H](CC(=O)N(CC(=O)N1CCOCC1)[C@@H](C)c1ccccc1)CC1CC1` [Compound 33, N^4-[1(S)-phenylethyl-N^4-(2-morpholino-2-oxoethyl)-N^1-1(S)-(cyclohexylmethyl)-2(R),3(S)-dihydroxy-5-methylhexyl]-2(R)-(cyclopropylmethyl)butanediamide] was 6.92; that for `CC(C)C[C@H](O)[C@H](O)[C@H](CC1CCCCC1)NC(=O)[C@@H](CC(=O)N(CC(N)=O)Cc1ccccc1)CC1CC1` [Compound 7, N^4-(2-amino-2-oxoethyl)-N^4-benzyl-N^1-[1(S)-(cyclohexylmethyl)-2(R),3(S)-dihydroxy-5-methylhexyl]-2(R)-(cyclopropylmethyl)-butanediamide] was 6.40; that for `CC(C)C[C@H](O)[C@H](O)[C@H](CC1CCCCC1)NC(=O)[C@@H](CC(=O)N(CC(=O)N(C)C)[C@H](C)c1ccccc1)CC1CC1` [Compound 16, N^4-[2-(dimethylamino)-2-oxoethyl]-N^4-[1(R)-phenylethyl]-N^1-[1(S)-(cyclohexylmethyl)-2(R),3(S)-dihydroxy-5-methylhexyl]-2(R)-(cyclopropylmethyl)butanediamide] was 6.34.
In turn, `CC(C)C[C@H](O)[C@H](O)[C@H](CC1CCCCC1)NC(=O)[C@@H](CC(=O)N(CC(=O)N(C)CCc1ccccn1)[C@@H](C)c1ccccc1)Cc1csc(N)n1` [Compound 75, N^4 -{2-{methyl[2-(2-pyridinyl)ethyl]-amino}-2-oxoethyl}-N^4-[1(S)-phenylethyl]-N^1-[1(S)-(cyclohexylmethyl)-2(R),3(S)-dihydroxy-5-methylhexyl]-2(R)-[(2-amino-4-thiazolyl)methyl]butanediamide] had a pIC50 of 9.00.
For `CC(C)C[C@H](O)[C@H](O)[C@H](CC1CCCCC1)NC(=O)[C@@H](CC(=O)N(CC(=O)N(C)C)[C@@H](C)c1ccccc1)Cc1c[nH]cn1` [Compound 27, N^4-[2-(dimethylamino)-2-oxoethyl]-N^4-(1(S)-phenylethyl]-N^1-[1(S)-(cyclohexylmethyl)-2(R),3(S)-dihydroxy-5-methylhexyl]-2(R)-(1H-imidazol-4-ylmethyl)butanediamide] the value was 8.22; for `CC(C)C[C@H](O)[C@H](O)[C@H](CC1CCCCC1)NC(=O)[C@@H](CC(=O)N(CC(=O)N(C)CCc1ccccn1)CC1CCCCC1)Cc1csc(N)n1` [Compound 50, N^4-(cyclohexylmethyl)-N^4 -{2-{methyl-[2-(2-pyridinyl)ethyl]-amino}-2-oxoethyl}-N^1-[1(S)-(cyclohexylmethyl)-2(R),3(S)-dihydroxy-5-methylhexyl]-2(R)-[(2-amino-4-thiazolyl)methyl]butanediamide], 8.66.
The value for `CC(C)C[C@H](O)[C@H](O)[C@H](CC1CCCCC1)NC(=O)[C@@H](CC(=O)N(CCc1ccccc1)CC(=O)N(C)C)CC1CC1` [Compound 3, N^4-[2-(dimethylamino)-2-oxoethyl]-N^4-(2-phenylethyl)-N^1-[1(S)-(cyclohexylmethyl)-2(R),3(S)-dihydroxy-5-methylhexyl]-2(R)-(cyclopropylmethyl)butanediamide] was 7.23.
For `CC(C)C[C@H](O)[C@H](O)[C@H](CC1CCCCC1)NC(=O)[C@@H](CC(=O)N(CC(=O)N(C)C)C[C@@H](C)c1ccccc1)Cc1csc(N)n1` [Compound 61, N^4-[2-(dimethylamino)-2-oxoethyl]-N^4-[2(S)-phenylpropyl]-N^1-[1(S)-(cyclohexylmethyl)-2(R),3(S)-dihydroxy-5-methylhexyl]-2(R)-[(2-amino-4-thiazolyl)methyl]-butanediamide], the pIC50 was 8.46.
For `CCCC(CCC)CN(CC(=O)N(C)CCc1ccccn1)C(=O)C[C@@H](Cc1csc(N)n1)C(=O)N[C@@H](CC1CCCCC1)[C@@H](O)[C@@H](O)CC(C)C` [Compound 92, N^4 -{2-{methyl[2-(2-pyridinyl)ethyl]-amino}-2-oxoethyl}-N^4-(2-propylpentyl)-N^1-[1(S)-(cyclohexylmethyl)-2(R),3(S)-dihydroxy-5-methylhexyl]-2(R)-[(2-amino-4-thiazolyl)methyl]-butanediamide] the value was 8.30; for `CC(C)C[C@H](O)[C@H](O)[C@H](CC1CCCCC1)NC(=O)[C@@H](CC(=O)N(CC(=O)N(C)C)CC1CCCCC1)Cc1ccccn1` [Compound 68, N^4-(cyclohexylmethyl)-N^4-[2-(dimethylamino)-2-oxoethyl]-N^1-[1(S)-(cyclohexylmethyl)-2(R),3(S)-dihydroxy-5-methylhexyl]-2(R)-(2-pyridinylmethyl)butanediamide], 8.40.
The value for `CC(C)C[C@H](O)[C@H](O)[C@H](CC1CCCCC1)NC(=O)[C@@H](CC(=O)N(CC(=O)N(C)C)[C@@H](C)C1CCCCC1)CC1CC1` [Compound 38, N^4-(1(S)-cyclohexylethyl)-N^4-[2-(dimethylamino)-2-oxoethyl]-N^1-[1(S)-(cyclohexylmethyl)-2(R),3(S)-dihydroxy-5-methylhexyl]-2(R)-(cyclopropylmethyl)butanediamide] was 8.08; that for `CC(C)C[C@H](O)[C@H](O)[C@H](CC1CCCCC1)NC(=O)[C@@H](CC(=O)N(CC(=O)N(C)CCc1ccccn1)Cc1ccco1)Cc1csc(N)n1` [Compound 79, N^4-(2-furanylmethyl)-N^4 -{2-{methyl-[2-(2-pyridinyl)ethyl)amino}-2-oxoethyl}-N^1-[1(S)-(cyclohexylmethyl)-2(R),3(S)-dihydroxy-5-methylhexyl]-2(R)-[(2-amino-4-thiazolyl)-methyl]butanediamide] was 9.00.

The record behind these values is US5541163A, “Renin inhibiting N-(2-amino-2-oxoethyl)butanediamide derivatives” (Bio-Mega/Boehringer Ingelheim Research Inc., priority 1993, dated 1996).
